Test results: article PMC8011931, “Identification, Structure–Activity Relationship, and Biological Characterization of 2,3,4,5-Tetrahydro-1H-pyrido[4,3-b]indoles as a Novel Class of CFTR Potentiators” (Journal of Medicinal Chemistry, 2020)

Key:
G551D-CFTR = biological target: T1, G551D-CFTR (Homo sapiens, UniProt P13569, G551D); experiment: HS-YFP-based assay on G551D-CFTR FRT cells; type: cell-based
T1 construct: expressed in transfected cells
Description: The primary hits were confirmed by testing them at different concentrations, in order to extrapolate the dose–response relationship. First, we focused on the F508del mutant. The compounds were tested in the low micromolar range, in the presence of forskolin (10 μM), on F508del-CFTR FRT cells following rescue of the trafficking defect by low-temperature incubation, as done for the primary screening. The most interesting hits were subsequently tested for their ability to overcome the more severe gating defect of pure class III mutant using FRT cells stably expressing G551D-CFTR (Figure 3B).
A small set of selected potentiators with good efficacy and potency on F508del-CFTR FRT cells (Figure 6A) was also tested at three concentrations on G551D-CFTR FRT cells (Figure 6B).
FRT cells stably expressing mutant F508del-CFTR or G551D-CFTR and the halide-sensitive yellow fluorescent protein (HS-YFP) YFP-H148Q/I152L and CFBE41o-cells stably expressing F508del-CFTR and HS-YFP were generated as previously described.[21],[57] FRT cells were cultured using the Coon’s modification of Ham’s F12 medium, while CFBE41o-cells were cultured in the modified Eagle’s medium. Media were supplemented with 10% fetal calf serum, 2 mM L-glutamine, 100 U/mL of penicillin, and […] of streptomycin. […]
Prior assay, cells were washed with phosphate-buffered saline (PBS) containing (in mM) 137 NaCl, 2.7 KCl, 8.1 Na2HPO4, 1.5 KH2PO4, 1 CaCl2, and 0.5 MgCl2. […] Cells were then transferred to microplate readers (FluoStar Optima; BMG Labtech, Offenburg, Germany) for CFTR activity determination. The plate readers were equipped with high-quality excitation (HQ500/20X: 500 ± 10 nm) and emission (HQ535/30M: 535 ± 15 nm) filters for YFP (Chroma Technology). The assay consisted of a continuous 14 s fluorescence reading, 2 s before and 12 s after injection of 165 μL of an iodide-containing solution (PBS with Cl^– replaced by I^–; final I^– concentration 100 mM). Data were normalized to the initial background-subtracted fluorescence. […]

F508del-CFTR = F508del-CFTR (Homo sapiens, UniProt P13569, DEL508-508); experiment: TEER/PD measurements on primary HBE cells from an F508del/F508del CF patient, 24 h co-incubation with corrector; type: cell-based; parameters: primary HBE cells from an F508del/F508del CF patient; endogenous in cells; host or cells: primary human bronchial epithelial cells, F508del/F508del CF patient; details: 39 0.5 μM with ARN23765 10 nM
Description: A similar combination study was conducted on primary HBE cells from an F508del/F508del CF patient. The effect of the compound was assessed with the transepithelial electrical resistance and potential difference (TEER/PD) technique.[41] Epithelia were treated for 24 h with a vehicle, a corrector ARN23765 alone (10 nM), or ARN23765 (10 nM) plus the potentiator 39 (0.5 μM). TEER and PD values were taken at resting, after the addition of apical amiloride, after maximal stimulation of F508del-CFTR activity (with forskolin plus genistein), and after blocking with PPQ-102. For each epithelium, we measured the difference in the short-circuit current, Ieq (calculated from the TEER and PD values), before and after blocking with PPQ-102 (ΔIeq). The results obtained on primary epithelia confirmed that the rescue of CFTR activity by the corrector ARN23765 was not affected by coincubation with the novel potentiator 39 (Figure 7B).
Primary bronchial epithelial cells were cultured as previously described.[58] In brief, epithelial cells were cultured in a serum-free medium (LHC9 mixed with RPMI 1640, 1:1) supplemented with hormones and supplements to support cell number amplification. […] Differentiation of cells to form a tight epithelium was monitored by measuring transepithelial electrical resistance and potential difference with an epithelial voltohmmeter (EVOM1, World Precision Instruments). […]

T1 sequence (P13569 whole entry G551D): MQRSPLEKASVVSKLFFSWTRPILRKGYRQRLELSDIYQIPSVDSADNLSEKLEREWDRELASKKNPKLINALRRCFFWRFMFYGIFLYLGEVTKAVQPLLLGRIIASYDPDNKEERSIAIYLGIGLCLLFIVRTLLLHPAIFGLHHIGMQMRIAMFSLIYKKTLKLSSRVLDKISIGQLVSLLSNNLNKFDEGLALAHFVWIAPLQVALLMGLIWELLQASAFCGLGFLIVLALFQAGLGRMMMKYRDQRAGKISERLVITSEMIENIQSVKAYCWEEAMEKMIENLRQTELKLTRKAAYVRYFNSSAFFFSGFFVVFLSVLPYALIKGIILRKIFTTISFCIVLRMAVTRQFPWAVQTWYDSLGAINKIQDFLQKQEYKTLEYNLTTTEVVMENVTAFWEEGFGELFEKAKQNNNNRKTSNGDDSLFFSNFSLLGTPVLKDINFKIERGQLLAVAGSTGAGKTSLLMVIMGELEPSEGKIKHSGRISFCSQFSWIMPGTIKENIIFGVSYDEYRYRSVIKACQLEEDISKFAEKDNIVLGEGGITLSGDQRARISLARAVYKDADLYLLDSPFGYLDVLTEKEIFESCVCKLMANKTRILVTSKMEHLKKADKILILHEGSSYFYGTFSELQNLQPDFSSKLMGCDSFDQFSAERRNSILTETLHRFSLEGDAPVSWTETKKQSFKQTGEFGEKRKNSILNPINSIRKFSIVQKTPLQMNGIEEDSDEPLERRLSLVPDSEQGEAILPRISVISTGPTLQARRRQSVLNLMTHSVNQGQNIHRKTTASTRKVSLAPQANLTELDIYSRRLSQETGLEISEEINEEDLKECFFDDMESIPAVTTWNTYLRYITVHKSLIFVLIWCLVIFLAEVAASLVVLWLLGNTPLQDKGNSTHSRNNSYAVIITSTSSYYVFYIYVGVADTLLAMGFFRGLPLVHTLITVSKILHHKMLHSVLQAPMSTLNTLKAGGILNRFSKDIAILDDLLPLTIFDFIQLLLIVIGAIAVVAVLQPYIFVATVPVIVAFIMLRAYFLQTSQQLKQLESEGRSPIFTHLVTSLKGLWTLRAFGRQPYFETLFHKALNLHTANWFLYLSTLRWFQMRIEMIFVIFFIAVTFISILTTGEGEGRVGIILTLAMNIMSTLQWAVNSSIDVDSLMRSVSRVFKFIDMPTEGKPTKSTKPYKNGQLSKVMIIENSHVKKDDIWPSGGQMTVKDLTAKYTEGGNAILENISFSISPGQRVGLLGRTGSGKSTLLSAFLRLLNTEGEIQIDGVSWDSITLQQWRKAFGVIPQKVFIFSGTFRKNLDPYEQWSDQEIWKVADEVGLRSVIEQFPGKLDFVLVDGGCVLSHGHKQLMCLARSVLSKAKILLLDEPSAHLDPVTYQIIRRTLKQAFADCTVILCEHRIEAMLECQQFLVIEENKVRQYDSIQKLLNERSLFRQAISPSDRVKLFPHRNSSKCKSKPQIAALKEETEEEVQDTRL
F508del-CFTR, sequence (P13569 with tags, fused parts or gaps DEL508-508): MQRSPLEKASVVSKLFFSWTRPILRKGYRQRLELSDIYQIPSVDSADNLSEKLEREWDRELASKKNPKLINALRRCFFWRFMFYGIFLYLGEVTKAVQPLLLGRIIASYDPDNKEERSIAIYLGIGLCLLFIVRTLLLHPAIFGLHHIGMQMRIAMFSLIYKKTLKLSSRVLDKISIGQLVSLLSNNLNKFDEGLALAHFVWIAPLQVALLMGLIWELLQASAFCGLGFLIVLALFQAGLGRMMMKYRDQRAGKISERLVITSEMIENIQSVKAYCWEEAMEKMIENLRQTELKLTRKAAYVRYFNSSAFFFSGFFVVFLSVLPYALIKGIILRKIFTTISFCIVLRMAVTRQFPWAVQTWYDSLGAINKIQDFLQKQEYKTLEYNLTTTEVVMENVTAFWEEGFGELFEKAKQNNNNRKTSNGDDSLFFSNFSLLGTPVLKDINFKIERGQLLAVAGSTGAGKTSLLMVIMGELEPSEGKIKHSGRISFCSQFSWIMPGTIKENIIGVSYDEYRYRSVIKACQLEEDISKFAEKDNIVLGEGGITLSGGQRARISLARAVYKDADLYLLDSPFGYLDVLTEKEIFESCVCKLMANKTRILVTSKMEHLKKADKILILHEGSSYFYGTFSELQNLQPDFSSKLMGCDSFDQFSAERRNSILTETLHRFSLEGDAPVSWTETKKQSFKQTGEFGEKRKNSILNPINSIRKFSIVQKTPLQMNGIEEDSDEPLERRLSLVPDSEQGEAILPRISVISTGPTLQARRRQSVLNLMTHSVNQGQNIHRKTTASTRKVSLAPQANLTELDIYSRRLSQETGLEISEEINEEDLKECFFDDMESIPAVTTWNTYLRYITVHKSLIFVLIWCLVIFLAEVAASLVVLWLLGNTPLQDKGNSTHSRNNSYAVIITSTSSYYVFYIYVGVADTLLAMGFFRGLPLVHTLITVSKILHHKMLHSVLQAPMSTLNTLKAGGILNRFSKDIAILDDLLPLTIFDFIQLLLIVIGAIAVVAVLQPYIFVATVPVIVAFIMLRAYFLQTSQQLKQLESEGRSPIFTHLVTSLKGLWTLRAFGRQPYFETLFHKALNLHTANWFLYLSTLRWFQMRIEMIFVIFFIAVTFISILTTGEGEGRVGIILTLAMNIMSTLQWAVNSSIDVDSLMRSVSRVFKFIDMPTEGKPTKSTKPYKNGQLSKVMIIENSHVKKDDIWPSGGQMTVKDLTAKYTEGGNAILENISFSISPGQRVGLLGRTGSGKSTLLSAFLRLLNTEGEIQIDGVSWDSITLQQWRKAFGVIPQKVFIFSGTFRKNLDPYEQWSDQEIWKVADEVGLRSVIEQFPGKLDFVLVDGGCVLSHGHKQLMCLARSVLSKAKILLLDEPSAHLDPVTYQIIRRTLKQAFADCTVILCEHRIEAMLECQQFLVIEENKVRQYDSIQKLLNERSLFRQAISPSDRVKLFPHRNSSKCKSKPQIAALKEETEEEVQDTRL

Cc1ccc(F)c2[nH]c3c(c12)CN(C(=O)c1cc(C(F)(F)F)[nH]n1)[C@H](C)C3 [Compound 39, (R)-(6-Fluoro-3,9-dimethyl-1,3,4,5-tetrahydro-2H-pyrido[4,3-b]indol-2-yl)-(5-(trifluoromethyl)-1H-pyrazol-3-yl)methanone]
activity compared to VX-770 on G551D-CFTR FRT cells (G551D-CFTR; at 0.56 μM): decrease in activity
activity compared to VX-770 on G551D-CFTR FRT cells (G551D-CFTR; at the highest concentrations (20–3.3 μM)): comparable pattern of activity
potency ranking on G551D-CFTR FRT cells (G551D-CFTR; tested at three concentrations, Figure 6B): the most potent one
effect on rescue of CFTR activity by the corrector ARN23765 (ΔIeq) (F508del-CFTR): not affected
